# Reference: patent publication US8293917B2, “Pyrazole compounds as CCR1 antagonists” (Boehringer Ingelheim International GmbH, priority 2008, dated 2012)
# Molecular target: T1, CCR1 (Homo sapiens, UniProt P32246)
# T1 construct: host or cells: non-adherent cells
# T1 sequence (P32246 1-355): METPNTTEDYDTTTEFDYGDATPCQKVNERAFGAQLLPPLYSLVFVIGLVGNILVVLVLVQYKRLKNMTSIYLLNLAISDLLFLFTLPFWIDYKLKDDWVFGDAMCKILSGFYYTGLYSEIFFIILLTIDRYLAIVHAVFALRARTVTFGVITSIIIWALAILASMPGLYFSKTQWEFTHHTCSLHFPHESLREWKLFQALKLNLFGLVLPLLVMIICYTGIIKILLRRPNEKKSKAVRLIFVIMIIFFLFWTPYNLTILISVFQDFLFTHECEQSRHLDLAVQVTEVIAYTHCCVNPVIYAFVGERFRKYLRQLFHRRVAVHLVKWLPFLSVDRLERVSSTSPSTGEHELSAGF
# Assay: functional cellular assay measuring calcium flux in response to MIP1α in CCR1-transfected cells (Method A or Method B)
# Format: cell-based
# Conditions: cells stably expressing recombinant CCR1 and G-alpha-16; MIP-1alpha added at EC80; method (A: FLIPR TETRA, B: FDSS6000) not stated per compound
# Method: Compounds are assessed for the ability to block the interaction of CCR1 and its ligands in a functional cellular assay measuring calcium flux in response to MIP1α in CCR1-transfected cells.
# Method A: Non-adherent cells purchased from Chemicon Corporation (HTS005C), stably expressing recombinant CCR1 and G-alpha-16 are grown in RPMI 1640 medium (Mediatech 10-080-CM) supplemented with 10% heat-inactivated FBS, 0.4 mg/mL Geneticin and penicillin/streptomycin. On the day of the assay, the cells are transferred to a beaker and dye-loaded in bulk using a Fluo-4 NW Calcium Assay Kit with probenecid (Invitrogen F36205) at 0.8E6 cells/mL for 1 hour at room temperature. After 1 hour, they are seeded in a 384-well tissue culture-treated plate at a density of 20,000 cells/well. Appropriately diluted test compound is added to the well to achieve a top concentration of 3,000 nM (diluted 3-fold with 10 doses total). The final concentration of DMSO is 1%. The buffer is HBSS (Invitrogen 14025) with 20 mM HEPES at pH 7.4. The cells are allowed to incubate 1 hour in the dark at room temperature. The plates are transferred to the FLIPR TETRA where MIP-1alpha in 1% BSA is added at the EC80 final concentration. Wells +/−MIP-1alpha containing diluted DMSO instead of compound serve as the controls. Intracellular calcium flux is recorded on the FLIPR TETRA, using excitation at 470/495 nm and emission at 515/575 nm. Data are analyzed using Activity Base software.
# Method B: Non-adherent cells purchased from Chemicon Corporation (HTS005C), stably expressing recombinant CCR1 and G-alpha-16 are grown in RPMI 1640 medium (Mediatech 10-080-CM) supplemented with 10% FBS, 0.4 mg/mL Geneticin and penicillin/streptomycin. On the day of the assay, the cells are loaded with Calcium 4 dye (Molecular Devices R7448) with Probenecid (Invitrogen P346400) at 8E5 cells/mL for 1 hour at room temperature. After 1 hour, they are seeded in a 384-well tissue culture-treated plate at a density of 20,000 cells/well. Appropriately diluted test compound is added to the well to achieve a top concentration of 3,000 nM (diluted 4-fold with 10 doses total). The final concentration of DMSO is 1%. The buffer is HBSS (Invitrogen 14025) with 20 mM HEPES at pH 7.4. The cells incubate 30 minutes at 37 C and then 30 minutes at room temperature. The plates are transferred to the HAMAMATSU FDSS6000 where MIP-1alpha in 1% BSA is added at the EC80 final concentration. All plates must be read within 4 hours of the start of dye-loading. Wells +/−MIP-1alpha containing diluted DMSO instead of compound serve as the controls. Data are analyzed using Activity Base software.
row,SMILES,IC50 [µM]
1,CCCC(NC(=O)c1cnn(-c2ccc(Cl)cc2)c1C)c1ccc(S(=O)(=O)NCCO)nc1 (centres unmarked) [1-(4-Chloro-phenyl)-5-methyl-1H-pyrazole-4-carboxylic acid {1-[6-(2-hydroxy-ethylsulfamoyl)-pyridin-3-yl]-butyl}-amide],0.097
2,"CC[C@H](NC(=O)c1cnn(-c2ccc(Cl)c(Cl)c2)c1C)c1cccc(Br)c1 [1-(3,4-Dichloro-phenyl)-5-methyl-1H-pyrazole-4-carboxylic acid [(S)-1-(3-bromo-phenyl)-propyl]-amide]",0.016
3,CCCC(NC(=O)c1cnn(-c2ccc(Cl)cc2)c1C)c1ccc(S(=O)(=O)CCCO)nc1 (centres unmarked) [1-(4-Chloro-phenyl)-5-methyl-1H-pyrazole-4-carboxylic acid {1-[6-(3-hydroxy-propane-1-sulfonyl)-pyridin-3-yl]-butyl}-amide],0.086
4,CCCC(NC(=O)c1cnn(-c2ccc(Cl)cc2)c1C)c1ccnc(S(N)(=O)=O)c1 (centres unmarked) [1-(4-Chloro-phenyl)-5-methyl-1H-pyrazole-4-carboxylic acid [1-(2-sulfamoyl-pyridin-4-yl)-butyl]-amide],0.051

# The next compounds have a lower IC50 than those just listed; values first:
row,IC50 [µM],SMILES
1,0.015,CCCC(NC(=O)c1cnn(-c2ccc(Cl)cc2)c1C)c1cncc(S(C)(=O)=O)c1 (centres unmarked) [1-(4-Chloro-phenyl)-5-methyl-1H-pyrazole-4-carboxylic acid [1-(5-methanesulfonyl-pyridin-3-yl)-butyl]-amide]
2,0.0057,CCCC(NC(=O)c1cnn(-c2ccc(Cl)cc2)c1C)c1ccnc(S(=O)(=O)CC)c1 (centres unmarked) [1-(4-Chloro-phenyl)-5-methyl-1H-pyrazole-4-carboxylic acid [1-(2-ethanesulfonyl-pyridin-4-yl)-butyl]-amide]
3,0.0053,"CCCC(NC(=O)c1cnn(-c2ccc(Cl)c(Cl)c2)c1C)c1ccc(S(C)(=O)=O)nc1 (centres unmarked) [1-(3,4-Dichloro-phenyl)-5-methyl-1H-pyrazole-4-carboxylic acid [1-(6-methanesulfonyl-pyridin-3-yl)-butyl]-amide]"
4,0.0011,CCCC(NC(=O)c1cnn(-c2ccc(Cl)cc2)c1C)c1ccnc(Br)c1 (centres unmarked) [1-(4-Chloro-phenyl)-5-methyl-1H-pyrazole-4-carboxylic acid [1-(2-bromo-pyridin-4-yl)-butyl]-amide]
